Reference: patent US20050112701A1, “Test system for the identification of APJ receptor ligands” (Aventis Pharma Deutschland GmbH, priority 2003, published 2005)
Ends that are not written are not given here.

Assays:
Assay type in all cases: cell-based
APJ receptor [1] = target: T1, APJ receptor (Homo sapiens, UniProt P35414); experiment: FLIPR calcium assay in CHO cells transiently cotransfected with APJ receptor and G protein α subunits (FIG. 3); set-up: expressed in transfected cells; host or cells: CHO (Chinese hamster ovary), transient; conditions: 1 μmol/l peptide; CHO cells cotransfected with APJ and α16 or αΔ6qi4myr; response required chimeric/promiscuous Gα subunit
T1 sequence (P35414 1-380): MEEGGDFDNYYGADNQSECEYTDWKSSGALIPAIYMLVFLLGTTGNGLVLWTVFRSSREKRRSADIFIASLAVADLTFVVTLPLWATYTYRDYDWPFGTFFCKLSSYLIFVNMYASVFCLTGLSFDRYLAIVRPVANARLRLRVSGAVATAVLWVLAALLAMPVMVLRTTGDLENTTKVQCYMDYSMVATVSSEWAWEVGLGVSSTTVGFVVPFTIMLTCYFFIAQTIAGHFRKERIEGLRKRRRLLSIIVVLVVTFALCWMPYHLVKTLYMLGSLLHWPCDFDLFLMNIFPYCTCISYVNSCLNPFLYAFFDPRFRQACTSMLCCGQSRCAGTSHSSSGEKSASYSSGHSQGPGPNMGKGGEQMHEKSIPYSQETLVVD
Description: The APJ receptor was transiently cotransfected in CHO cells (Chinese hamster ovary cells) with vector DNA as a control (white column) or the G protein α subunits α16 (black column) and αΔ6qi4myr (striped column) according to methods known to the one skilled in the art. […] Data presented are mean values (fluorescence intensity units, FIU) from 2 individual experiments performed in duplicate.
(§1) The FLIPR calcium assay provides a suitable method for detecting changes in intracellular calcium concentration. It is a fluorescence-based assay which was performed according to the manufacture's instructions (Molecular Devices, CA, USA). Briefly summarized, cells were seeded on 96- or 384-well plates Loading Buffer was added to the cells and plates incubated for 1 hour at 37° C. After incubation cells were stimulated with the prevailing APJ receptor ligand or none. Thereafter intracellular calcium concentration was measured in the FLIPR according to the FLIPR system manual.

APJ receptor [2] = target: T1, APJ receptor; experiment: FLIPR calcium assay in stably transfected HEK 293 cells overexpressing G protein and APJ receptor (FIG. 4); set-up: expressed in transfected cells; host or cells: HEK 293; conditions: 50 nmol/l, 200 nmol/l, 1 μmol/l; HEK 293 stably cotransfected with G protein and APJ; response required APJ receptor
Method: Data presented are mean values (fluorescence intensity units, FIU) from 2 individual experiments performed in duplicate.
as §1

APJ receptor [3] = target: T1, APJ receptor; experiment: FLIPR calcium assay, EC50 of apelin peptides in HEK293-PSCi4qi4-APJ cells; set-up: expressed in transfected cells; host or cells: HEK293-PSCi4qi4 (HEK 293 stably expressing Gαi4qi4); conditions: intracellular calcium
Method: as §1

Compound	intracellular calcium release via the APJ receptor (APJ receptor [1])	intracellular calcium release via the APJ receptor (APJ receptor [2])	EC50 (APJ receptor [3]; first of two independent measurements)	EC50 (APJ receptor [3]; second of two independent measurements)
CSCC[C@H](NC(=O)[C@@H]1CCCN1C(=O)CNC(=O)[C@H](CCCCN)NC(=O)[C@H](Cc1c[nH]cn1)NC(=O)[C@H](CO)NC(=O)[C@H](CC(C)C)NC(=O)[C@H](CCCNC(=N)N)NC(=O)[C@@H]1CCCN1C(=O)[C@@H](N)CCCNC(=N)N)C(=O)N1CCC[C@H]1C(=O)N[C@@H](Cc1ccccc1)C(=O)O [Apelin-12]	induced intracellular calcium release			
LVQPRGSRNGPGPWQGGRRKFRRQRPRLSHKGPMPF [Apelin-36]	induced intracellular calcium release	induced intracellular calcium release via the APJ receptor in a dose-dependent manner	0.051 µM	0.027 µM
